The source made the active and inactive calls. The calls are words filed in the database; no cut-off is given here. Where a SMILES comes first, the peptide text is derived from it. [ ]: non-standard residue; d: D form. The star is where a group is joined. X2 = CC(C)(COP(=O)(O)OP(=O)(O)OC[C@H]1O[C@@H](n2cnc3c(N)ncnc32)[C@H](OP(=O)(O)O)[C@@H]1O)C(O)C(=O)NCCC(=O)NCC*; Mpa = O=C(O)CCS
Assays:
[1] = Drug uptake in digitonin treated human HCT116 cells measured at 100 uM after 2 hrs of incubation by MALDI-MS; format: ADME, cell-based; settings: hct-116, 2 h
[2] = target: T1, N-alpha-acetyltransferase 50 (Homo sapiens) (UniProt Q9GZZ1); assay: Inhibition of human NatE using AcCoA and MLGP peptide as substrate at 10 uM incubated for 40 min at room temperature
T1 sequence (whole entry): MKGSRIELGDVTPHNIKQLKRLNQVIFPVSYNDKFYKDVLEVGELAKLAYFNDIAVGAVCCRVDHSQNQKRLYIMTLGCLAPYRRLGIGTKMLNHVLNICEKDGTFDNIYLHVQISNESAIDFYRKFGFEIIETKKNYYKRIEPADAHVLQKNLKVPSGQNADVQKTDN

[3] = target: T2, Histone acetyltransferase KAT8 (Homo sapiens) (UniProt Q9H7Z6); assay: Inhibition of human MOF using AcCoA and H4 peptide as substrate at 1 uM incubated for 20 min at room temperature relative to control
T2 sequence (whole entry): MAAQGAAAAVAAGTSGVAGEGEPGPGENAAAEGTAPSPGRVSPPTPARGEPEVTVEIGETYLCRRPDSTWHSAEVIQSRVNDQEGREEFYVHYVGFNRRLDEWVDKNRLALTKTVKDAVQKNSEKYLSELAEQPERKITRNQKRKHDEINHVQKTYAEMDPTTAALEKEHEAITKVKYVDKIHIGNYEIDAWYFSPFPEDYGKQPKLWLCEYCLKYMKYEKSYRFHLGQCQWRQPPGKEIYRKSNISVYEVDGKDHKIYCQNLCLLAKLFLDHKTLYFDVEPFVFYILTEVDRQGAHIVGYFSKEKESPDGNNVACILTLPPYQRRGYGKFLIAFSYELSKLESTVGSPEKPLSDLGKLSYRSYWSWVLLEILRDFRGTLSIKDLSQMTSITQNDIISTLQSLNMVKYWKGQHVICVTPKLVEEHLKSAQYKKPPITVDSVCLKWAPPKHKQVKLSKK

[4] = organism: Homo sapiens; assay: Inhibition of human NatA using AcCoA and H4 peptide as substrate at 1 uM incubated for 12 min at room temperature relative to control
[5] = system: NatC (Schizosaccharomyces pombe); assay: Inhibition of Schizosaccharomyces pombe NatC using AcCoA and MLRF peptide as substrate at 10 uM incubated for 5 min at room temperature
[6] = target: Histone acetyltransferase KAT2B (Homo sapiens) (UniProt Q92831); assay: Inhibition of human PCAF using AcCoA and H4 peptide as substrate at 10 uM incubated for 20 min at room temperature
[7] = organism: Homo sapiens; assay: Selectivity ratio of inhibition of human MOF to inhibition of human NatD
[8] = target: N-alpha-acetyltransferase 40 (Homo sapiens) (UniProt Q86UY6); assay: Non-competitive inhibition of human NatD using various concentration of [14C]acetyl-CoA and fixed human H4 peptide as substrate measured after 13 mins radioactive assay
[9] = organism: Homo sapiens; assay: Inhibition of human NatB using AcCoA and MDVF peptide as substrate at 10 uM incubated for 10 min at room temperature
[10] = target: N-alpha-acetyltransferase 40 (Homo sapiens) (UniProt Q86UY6); settings: HCT-116, Lysate, dose 100.0 µM, time 2.0 hrs
[11] = system: NatC (Schizosaccharomyces pombe); assay: Selectivity ratio of inhibition of Schizosaccharomyces pombe NatC to inhibition of human NatD
[12] = organism: Homo sapiens; assay: Selectivity ratio of inhibition of human NatA to inhibition of human NatD

Chain of Histone acetyltransferase KAT2B (Homo sapiens) (Q92831 whole entry, looked up): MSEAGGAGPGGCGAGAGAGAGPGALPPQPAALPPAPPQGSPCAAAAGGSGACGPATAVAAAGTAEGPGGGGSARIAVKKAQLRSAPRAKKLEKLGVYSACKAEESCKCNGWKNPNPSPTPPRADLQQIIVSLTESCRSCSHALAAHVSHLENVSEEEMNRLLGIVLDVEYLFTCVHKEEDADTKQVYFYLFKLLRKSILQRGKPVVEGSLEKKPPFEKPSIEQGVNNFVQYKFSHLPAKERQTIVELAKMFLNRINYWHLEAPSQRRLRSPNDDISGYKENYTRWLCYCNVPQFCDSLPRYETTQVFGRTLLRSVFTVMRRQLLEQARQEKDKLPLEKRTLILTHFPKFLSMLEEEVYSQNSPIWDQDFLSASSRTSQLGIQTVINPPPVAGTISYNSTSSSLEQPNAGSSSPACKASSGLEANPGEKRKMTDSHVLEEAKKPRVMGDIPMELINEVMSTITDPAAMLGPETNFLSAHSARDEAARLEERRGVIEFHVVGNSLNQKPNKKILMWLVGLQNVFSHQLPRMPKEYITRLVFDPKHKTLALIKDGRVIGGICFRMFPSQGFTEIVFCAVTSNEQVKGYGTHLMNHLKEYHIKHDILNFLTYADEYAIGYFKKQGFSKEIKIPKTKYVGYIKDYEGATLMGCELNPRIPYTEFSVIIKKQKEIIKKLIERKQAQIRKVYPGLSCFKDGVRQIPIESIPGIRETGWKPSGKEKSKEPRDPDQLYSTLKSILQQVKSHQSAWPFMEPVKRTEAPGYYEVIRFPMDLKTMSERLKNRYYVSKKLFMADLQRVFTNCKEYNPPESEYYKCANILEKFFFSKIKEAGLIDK

Which Drug uptake [1] does the source give for CC(C)(COP(=O)(O)OP(=O)(O)OC[C@H]1O[C@@H](n2cnc3c(N)ncnc32)[C@H](OP(=O)(O)O)[C@@H]1O)C(O)C(=O)NCCC(=O)NCCSCCC(=O)N[C@@H](CO)C(=O)NCC(=O)N[C@@H](CCCNC(=N)N)C(=O)NCC(N)=O (stereo partly drawn) here?
The Drug uptake was “Active”.

For CC(C)(COP(=O)(O)OP(=O)(O)OC[C@H]1O[C@@H](n2cnc3c(N)ncnc32)[C@H](OP(=O)(O)O)[C@@H]1O)C(O)C(=O)NCCC(=O)NCCSCCC(=O)N[C@@H](CO)C(=O)NCC(=O)N[C@@H](CCCNC(=N)N)C(=O)NCC(=O)N[C@@H](CCCCN)C(N)=O (stereo partly drawn) ([Mpa](X2)SGRGK-NH2), which inhibition [2] is on record?
Its inhibition is “inactive”.

And the inhibition [3]?
Its inhibition is 10%.

What about the inhibition [4] of the same compound?
Its inhibition is 10%.

What about the inhibition [5] of the same compound?
Its inhibition is “inactive”.

What about the inhibition [6] of the same compound?
The inhibition was “inactive”.

And the Selectivity ratio [7]?
Its Selectivity ratio is 1000.

And the Drug uptake [1]?
Its Drug uptake is “Active”.

What about the alphaKi [8] of the same compound?
Its alphaKi is 2.1 nM.

What about the inhibition [9] of the same compound?
Its inhibition is “inactive”.

And the deltaT [10]?
Its deltaT is 1.7 °C.

And the Selectivity ratio [11]?
The Selectivity ratio was 10000.

What about the Selectivity ratio [12] of the same compound?
The Selectivity ratio was 1000.
